According to PMC11998009, “Identification of a New FtsZ Inhibitor by Virtual Screening, Mechanistic Insights, and Structure–Activity Relationship Analyses” (ACS Infectious Diseases, 2025):
In brackets after ≈: the same amount, converted by molar mass. Read-outs that look alike come from different tables or passages of the source.

Assays:
[1] = test system: S. aureus ATCC25923 biofilms; experiment: Biofilm eradication assay (CFU counting, CLSM); type: cell-based
FtsZSa [2] = biological target: T1, FtsZSa (Staphylococcus aureus, UniProt P0A031); experiment: FtsZSa polymerization, sedimentation assay; settings: sedimentation assay, 100 μM
T1 sequence (P0A031 1-390): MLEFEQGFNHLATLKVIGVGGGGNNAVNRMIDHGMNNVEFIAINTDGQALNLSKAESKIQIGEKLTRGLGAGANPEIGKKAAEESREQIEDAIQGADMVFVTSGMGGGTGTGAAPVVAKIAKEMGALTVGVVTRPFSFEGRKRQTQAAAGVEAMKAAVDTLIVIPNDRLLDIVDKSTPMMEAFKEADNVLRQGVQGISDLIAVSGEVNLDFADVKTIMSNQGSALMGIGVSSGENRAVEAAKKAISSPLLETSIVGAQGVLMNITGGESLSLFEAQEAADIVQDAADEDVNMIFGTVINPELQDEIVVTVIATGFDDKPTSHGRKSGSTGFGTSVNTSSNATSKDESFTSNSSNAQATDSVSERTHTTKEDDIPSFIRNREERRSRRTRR

S. aureus ATCC25923 [3] = experiment: MIC determination by 2-fold microdilution, resazurin method; type: cell-based, Staphylococcus aureus; settings: S. aureus ATCC25923, single drug
S. aureus ATCC25923 [4] = experiment: Galleria mellonella infection model
K. pneumoniae ATCC13883 = experiment: MIC / checkerboard with PaβN; type: cell-based
CFBE41o- cells = experiment: MTT cell viability assay on CFBE41o-; settings: CFBE41o-, 12.5 μM (4.8 μg/mL), 6 h
[5] = MTT cell viability assay on CFBE41o-; settings: human, CFBE41o- cells
[6] = biological target: T2, S. aureus FtsZ protein (FtsZSa) (Staphylococcus aureus, UniProt P0A031); experiment: In vitro FtsZ GTPase activity (PK/LDH coupled assay); type: biochemical; parameters: Residual GTPase activity: concentration or dose not given beside the values
T2 construct: made in house; host or cells: Escherichia coli BL21DE3
T2 sequence (P0A031 1-390): T1 sequence (P0A031 1-390)
Protocol: In vitro FtsZ GTPase activity
FtsZSa and FtsZPa were expressed and purified as previously described.13,14 GTPase activity was assayed at 30°C using a pyruvate kinase–L-lactic dehydrogenase (PK/LDH) spectrophotometric coupled assay, as previously described15 with minor modification. The reaction mixture was first set up to contain 50 mM MES […]
phosphoenolpyruvate, and 4.8 μM of FtsZ. The assay was initiated by the addition of 1 mM GTP. The experiments were performed in triplicate. The inhibitory concentration that reduced the enzymatic activity by half (IC50) was determined using Prism 10. […]

FtsZSa [7] = biological target: T1, FtsZSa; experiment: FtsZSa polymerization, 90° light scattering
[8] = test system: S. aureus ATCC25923 biofilms; experiment: Biofilm inhibition assay (CFU counting, CLSM); type: cell-based
P. aeruginosa PAO1 = experiment: MIC / checkerboard with PaβN; type: cell-based
mammalian tubulin = experiment: Tubulin polymerization assay, fluorescence based; type: biochemical; settings: for Vmax of tubulin polymerization: DMSO control 3.78
[9] = MTT cell viability assay on A549; settings: human, A549 cells
[10] = test system: A549 pulmonary epithelial cells; experiment: MTT cell viability assay on A549; settings: A549, 25 μM, 24 h
[11] = test system: P. aeruginosa PAO1, K. pneumoniae ATCC13883, and A. baumannii ATCC19606; experiment: MIC of C11 with PAβN, Gram-negative panel as a whole; type: cell-based; settings: efflux pump inhibitor PAβN present
A. baumannii ATCC19606 = experiment: MIC / checkerboard with PaβN; type: cell-based
FtsZPa = biological target: T3, FtsZPa (Pseudomonas aeruginosa, UniProt P47204); experiment: FtsZPa polymerization assay
T3 sequence (P47204 1-394): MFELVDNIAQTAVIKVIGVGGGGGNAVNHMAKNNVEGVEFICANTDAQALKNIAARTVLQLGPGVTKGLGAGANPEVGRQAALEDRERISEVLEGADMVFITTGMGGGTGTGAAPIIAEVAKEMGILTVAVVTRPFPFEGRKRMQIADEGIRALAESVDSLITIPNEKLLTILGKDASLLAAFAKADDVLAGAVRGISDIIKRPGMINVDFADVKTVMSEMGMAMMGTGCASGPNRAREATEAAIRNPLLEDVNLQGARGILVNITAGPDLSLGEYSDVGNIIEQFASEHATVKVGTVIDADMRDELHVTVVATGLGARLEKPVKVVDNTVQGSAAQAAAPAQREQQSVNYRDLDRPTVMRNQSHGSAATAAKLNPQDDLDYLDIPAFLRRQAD

[12] = test system: S. aureus TD276 expressing FtsZ-mCherry; experiment: FtsZ localization by fluorescence time-lapse microscopy; type: cell-based; settings: 4 μg/mL C11, time-lapse; untreated 4%
S. aureus TD276 = experiment: MIC against the FtsZ-mCherry strain; type: cell-based; settings: Staphylococcus aureus

In the case of `COc1ccc(Cc2nnc(SC3=CS(=O)(=O)c4ccccc43)o2)cc1` [C11], the “Biofilm eradication, viable cells by CFU counting” value ([1]; 2 × MIC, 4 μg/mL, 24 h treatment) is reported as “reduce the number of viable cells”, the “Biofilm eradication by CLSM” value ([1]; increasing concentrations (4, 8, 16 μg/ml)) is reported as “eradicating the majority of the attached cells” and the “Effect on FtsZSa polymers formation” value (FtsZSa [2]) is reported as “inhibitory effect on FtsZSa polymerization”. For the same compound, the “MIC S. aureus” value (S. aureus ATCC25923 [3]) was 2 mg/L (≈ 5.18 µM), the MIC (S. aureus ATCC25923 [3]; Staphylococcus aureus) was 2 mg/L (≈ 5.18 µM) and the “Survival rate of infected larvae” value (S. aureus ATCC25923 [4]; 40 mg/kg 2 h after infection, 2 days postinfection, DMSO group 46%) was 77%. The “Survival rate of infected larvae” value (S. aureus ATCC25923 [4]; 40 mg/kg, after 6 days) was “significantly higher than the mock-treated group”, the “Survival rate of infected larvae” value (S. aureus ATCC25923 [4]; 40 mg/kg, three days postinfection, DMSO group 32%) was 58% and the MIC (K. pneumoniae ATCC13883; K. pneumoniae ATCC13883, C11 alone) was ≥ 128 mg/L. The MIC (K. pneumoniae ATCC13883; Klebsiella pneumoniae, ATCC13883, K. pneumoniae ATCC13883, + PaβN […], read-out: MIC) was 8 mg/L, the MIC (K. pneumoniae ATCC13883; Klebsiella pneumoniae, ATCC13883, K. pneumoniae ATCC13883, C11 alone, read-out: MIC) was ≥ 128 mg/L and the “Percentage of live cells (MTT)” value (CFBE41o- cells) was “higher than 90%”. The viability at 6 h, 25 µM [5] was 65%, the viability at 24 h, 25 µM [5] was 25% and the “Effect on FtsZSa GTPase activity” value [6] was “did not affect the FtsZSa GTPase activity”. For the same compound, the “Residual GTPase activity” value ([6]; S. aureus FtsZ protein) was 82.2%, the IC50 (FtsZSa [7]) was 48 µM and the “Biofilm formation by CLSM and COMSTAT2” value ([8]; 2 μg/mL) was “only slightly affected biofilm formation”. For the same compound, the “Biofilm formation by CFU counting” value ([8]; 2- or 4-fold the MIC (4–8 μg/mL)) was “almost completely inhibit biofilm formation”, the “Biofilm formation by CLSM and COMSTAT2” value ([8]; 4 and 8 μg/mL) was “almost completely abolished it” and the MIC (P. aeruginosa PAO1; P. aeruginosa PAO1, C11 alone) was ≥ 128 mg/L. The MIC (P. aeruginosa PAO1; Pseudomonas aeruginosa, PAO1, P. aeruginosa PAO1, + PaβN 64 µg/ml, read-out: MIC) was 16 mg/L, the MIC (P. aeruginosa PAO1; Pseudomonas aeruginosa, PAO1, P. aeruginosa PAO1, + PaβN […], read-out: MIC) was 1 mg/L and the MIC (P. aeruginosa PAO1; Pseudomonas aeruginosa, PAO1, P. aeruginosa PAO1, C11 alone, read-out: MIC) was ≥ 128 mg/L. For the same compound, the “Vmax of tubulin polymerization” value (mammalian tubulin; 5 μM) was 3.5 mOD/min, the “Vmax of tubulin polymerization” value (mammalian tubulin; 10 μM) was 3 mOD/min and the “Decrease of tubulin polymerization” value (mammalian tubulin; 25 μM (9.6 μg/mL), highest tested concentration) was 20%. For the same compound, the “Vmax of tubulin polymerization” value (mammalian tubulin; 25 μM) was 2.8 mOD/min, the viability at 6 h, 25 µM [9] was > 90% and the “Percentage of live cells (MTT)” value [10] was “higher than 70%”. The “MIC values in the presence of PAβN” value [11] was 1 to 16 mg/L, the MIC (A. baumannii ATCC19606; A. baumannii ATCC19606, C11 alone) was ≥ 128 mg/L and the MIC (A. baumannii ATCC19606; Acinetobacter baumannii, ATCC19606, A. baumannii ATCC19606, + PaβN 64 µg/ml, read-out: MIC) was 1 mg/L. For the same compound, the MIC (A. baumannii ATCC19606; Acinetobacter baumannii, ATCC19606, A. baumannii ATCC19606, C11 alone, read-out: MIC) was ≥ 128 mg/L, the IC50 (FtsZPa) was 34 µM and the “Percentage of cells in which FtsZ was delocalized” value [12] was 60%. It also gave an MIC (S. aureus TD276) of 2 mg/L (≈ 5.18 µM).
